From patent publication US20030026766A1 (priority 2000, published 2003) come the findings set out here.

The test has as its target T1, glucocorticoid receptor (Homo sapiens, UniProt P04150).
T1 sequence (P04150 1-777): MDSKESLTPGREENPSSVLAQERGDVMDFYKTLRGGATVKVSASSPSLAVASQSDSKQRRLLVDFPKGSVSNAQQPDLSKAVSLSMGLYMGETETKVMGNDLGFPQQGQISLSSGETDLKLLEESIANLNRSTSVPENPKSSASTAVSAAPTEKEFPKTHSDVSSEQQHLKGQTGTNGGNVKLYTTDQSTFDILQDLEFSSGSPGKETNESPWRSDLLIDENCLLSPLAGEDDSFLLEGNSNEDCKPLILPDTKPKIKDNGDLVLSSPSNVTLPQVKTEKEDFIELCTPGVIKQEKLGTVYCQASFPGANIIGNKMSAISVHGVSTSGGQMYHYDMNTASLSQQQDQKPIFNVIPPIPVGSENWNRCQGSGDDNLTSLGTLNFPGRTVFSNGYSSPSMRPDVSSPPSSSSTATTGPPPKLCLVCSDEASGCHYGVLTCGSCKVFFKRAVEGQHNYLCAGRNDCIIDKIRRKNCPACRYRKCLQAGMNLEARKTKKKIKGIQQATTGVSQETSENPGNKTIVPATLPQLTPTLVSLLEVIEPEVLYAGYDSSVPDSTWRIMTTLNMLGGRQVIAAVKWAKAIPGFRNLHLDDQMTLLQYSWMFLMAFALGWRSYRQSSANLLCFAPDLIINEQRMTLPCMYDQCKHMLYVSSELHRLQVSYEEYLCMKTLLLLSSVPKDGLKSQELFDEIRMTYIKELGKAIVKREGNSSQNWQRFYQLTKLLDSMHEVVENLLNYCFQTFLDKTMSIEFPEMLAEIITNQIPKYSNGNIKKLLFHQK
The experiment in a line: Western Blot analysis of glucocorticoid receptor translocation into the nucleus in U937 cells. To be noted: nuclear extract, GR band at approximately 94 kDa by densitometry, control = 100, proportional to increase in GR translocation into the nucleus.

For the compound `OCc1cc(C(O)CNCCCCCCOCCCCc2ccccc2)ccc1O` (stereo not shown) [Salmeterol], the “% Change in Band Density” value was determined as 183 ± 12%.
